Measured values reported in ChEMBL document CHEMBL4689842, “EUbOPEN Chemogenomics Library wave 1” (2021).

Tests used:
Format in all cases: toxicity, cell-based
Fibroblast = experiment: Incucyte cell viability with human fibroblast; details: 10 µM, compound concentration 10 uM
HEK-293T = experiment: Incucyte cell viability with HEK293T; details: human, 10 µM, compound concentration 10 uM
U2OS = experiment: Incucyte cell viability with U2OS; details: human, 10 µM, compound concentration 10 uM
[1] = 0 h, replicate number 1, timepoint 0 hours
[2] = 6 h, replicate number 2, timepoint 6 hours
[3] = 12 h, replicate number 1, timepoint 12 hours
[4] = 12 h, replicate number 2, timepoint 12 hours
[5] = 18 h, replicate number 1, timepoint 18 hours
[6] = 24 h, replicate number 1, timepoint 24 hours
[7] = 24 h, replicate number 2, timepoint 24 hours
[8] = 0 h, replicate number 2, timepoint 0 hours
[9] = 6 h, replicate number 1, timepoint 6 hours
[10] = 18 h, replicate number 2, timepoint 18 hours
Also: filed as whole numbers so only -1 and 0 and 1 occur.

Row | SMILES | Growth Rate (Fibroblast; [1]) | Growth Rate (Fibroblast; [2]) | Growth Rate (Fibroblast; [3]) | Growth Rate (Fibroblast; [4]) | Growth Rate (Fibroblast; [5]) | Growth Rate (Fibroblast; [6]) | Growth Rate (Fibroblast; [7]) | Growth Rate (HEK-293T; [1]) | Growth Rate (HEK-293T; [8]) | Growth Rate (HEK-293T; [9]) | Growth Rate (HEK-293T; [3]) | Growth Rate (HEK-293T; [5]) | Growth Rate (HEK-293T; [6]) | Growth Rate (U2OS; [1]) | Growth Rate (U2OS; [9]) | Growth Rate (U2OS; [3]) | Growth Rate (U2OS; [5]) | Growth Rate (U2OS; [6]) | Growth Rate (Fibroblast; [9]) | Growth Rate (U2OS; [2]) | also measured
1 | COc1cc2c(cc1NS(=O)(=O)c1ccc(Br)cc1C)n(C)c(=O)n2C | 0 | 0 | 1 | 0 | 1 | 1 | 0 | 1 | 0 | 0 | 0 | 0 | 0 | 0 | 1 | 1 | 1 | 1 | – | – | –
2 | CN(C)C(=O)/C(C#N)=C/c1ccc(-c2nc3cnc4c(ccn4C)c3n2C2CCCCC2)o1 | – | 1 | 0 | – | 0 | 0 | – | – | – | 0 | 0 | 0 | 0 | 0 | 0 | 0 | 0 | 1 | 0 | 1 | Growth Rate (U2OS; [4]): 1; Growth Rate (U2OS; [10]): 1
3 | CSc1cccnc1N1CCN(Cc2nc3ccccc3[nH]2)CC1 [A-769] | 0 | 1 | 0 | 1 | 0 | 0 | – | 1 | 0 | 0 | 0 | 0 | 0 | – | 0 | 0 | 0 | 1 | 0 | – | Growth Rate (Fibroblast; [8]): 1; Growth Rate (U2OS; [10]): 1
4 | C[C@H](NC[C@H](O)CP(=O)(O)CC1CCCCC1)c1ccc(Cl)c(Cl)c1.Cl | 0 | – | 1 | – | 0 | 0 | 1 | 1 | 0 | 0 | 1 | 1 | 1 | 0 | – | 1 | 1 | 1 | 0 | 0 | Growth Rate (HEK-293T; [2]): 1; Growth Rate (HEK-293T; [10]): 0; Growth Rate (U2OS; [4]): 0; Growth Rate (U2OS; [7]): 0
5 | Cc1noc([C@H]2C[C@@H](c3ccc(C(F)(F)F)cc3)CN(C(=O)N3CCS(=O)(=O)C3)C2)n1 [BAY-448] | 0 | 0 | 1 | – | 0 | 0 | 1 | 1 | 0 | 0 | 0 | 0 | 0 | 0 | – | 1 | 0 | 0 | 1 | 1 | Growth Rate (HEK-293T; [2]): 1; Growth Rate (HEK-293T; [4]): 1; Growth Rate (U2OS; [10]): 1; Growth Rate (U2OS; [7]): 1
6 | COc1cc2ncnc(Nc3ccc(F)c(Cl)c3)c2cc1OCCCN1CCOCC1 [GEFITINIB] | 0 | 1 | 0 | – | 0 | 0 | – | 0 | – | 0 | 0 | 0 | 0 | 0 | 0 | 0 | 0 | 0 | – | – | Growth Rate (U2OS; [4]): 1; Growth Rate (U2OS; [10]): 1; Growth Rate (U2OS; [7]): 1
7 | CC(C)N(CCCNC(=O)Nc1ccc(C(C)(C)C)cc1)C[C@H]1O[C@@H](n2cc(Br)c3c(N)ncnc32)[C@H](O)[C@@H]1O | – | – | 1 | – | 1 | 1 | – | – | – | 0 | – | – | 1 | 0 | 1 | 1 | 1 | 1 | – | – | Growth Rate (Fibroblast; [8]): 0; Growth Rate (HEK-293T; [4]): 0; Growth Rate (HEK-293T; [10]): 1
8 | O=S1(=O)c2cccc3cccc(c23)N1CCCN1CCN(c2ccc(F)cc2)CC1 [FANANSERIN] | 0 | 0 | 0 | – | 1 | 1 | 0 | – | 0 | 0 | 0 | 0 | 0 | – | – | 1 | 1 | 1 | 1 | – | Growth Rate (Fibroblast; [10]): 0; Growth Rate (U2OS; [8]): 0
9 | O=C(N[C@@H](C1CC1)C(F)(F)F)c1cc(-c2cnn3cc(-c4ccc(F)cc4)cnc23)cs1 | 0 | – | 1 | – | 1 | 1 | – | 0 | 1 | – | – | – | – | – | 0 | 0 | 0 | 1 | 1 | – | Growth Rate (HEK-293T; [2]): 1; Growth Rate (HEK-293T; [4]): 1; Growth Rate (HEK-293T; [7]): 1; Growth Rate (U2OS; [8]): 1; Growth Rate (U2OS; [7]): 0
10 | COc1cc(-c2cn([C@H]3CCc4ccccc4N(CC(F)(F)F)C3=O)nn2)ccc1-n1ccc(C)n1 | – | – | 0 | 1 | 1 | 0 | – | – | 1 | 0 | 0 | 0 | 0 | 0 | 0 | 0 | 0 | 0 | 0 | – | Growth Rate (Fibroblast; [8]): 0; Growth Rate (Fibroblast; [10]): 0; Growth Rate (U2OS; [4]): 1
11 | Cl.Clc1cccc(COc2cncc(N3CCNCC3)n2)c1 | 1 | 0 | – | 0 | – | 1 | 0 | – | 1 | 0 | 0 | 0 | 0 | – | – | 0 | 1 | 1 | 1 | 0 | Growth Rate (Fibroblast; [10]): 0; Growth Rate (U2OS; [4]): 1
12 | CCOC(=O)c1cc2cc(-c3cc(C(=O)NCc4ccc(C(=O)O)cc4)nn3C)ccc2[nH]1 [BI 4394] | 1 | – | 1 | 0 | 1 | 1 | – | 0 | – | – | 1 | 0 | 0 | – | 1 | 1 | 0 | 1 | 0 | – | Growth Rate (Fibroblast; [8]): 0; Growth Rate (HEK-293T; [10]): 1; Growth Rate (U2OS; [8]): 0; Growth Rate (U2OS; [10]): 1
13 | Cc1ccccc1C(=O)Nc1ccc(C(=O)N2CCCC(O)c3cc(Cl)ccc32)c(C)c1 (centres undefined) [TOLVAPTAN] | 1 | – | 1 | 0 | 1 | 1 | 0 | 1 | 0 | 0 | 0 | 0 | 0 | – | 0 | 0 | 0 | 1 | 0 | – | Growth Rate (Fibroblast; [10]): 0
14 | C[C@]1(C(=O)N(CCCC(=O)O)Cc2cccc(Cl)c2)CCN1C(=O)c1csc2ccccc12 [GLPG-0974] | 0 | – | 0 | – | 1 | 1 | – | 1 | 0 | 1 | 1 | 1 | 1 | 0 | – | 1 | 1 | 1 | 0 | 1 | Growth Rate (Fibroblast; [8]): 1; Growth Rate (HEK-293T; [2]): 0; Growth Rate (HEK-293T; [4]): 0; Growth Rate (HEK-293T; [10]): 0; Growth Rate (HEK-293T; [7]): 0
15 | O[C@H]1CC[C@H](Nc2ncc3nc(Nc4c(F)cc(F)cc4F)n([C@H]4CCOC4)c3n2)CC1 [TANZISERTIB] | – | – | 1 | 0 | 1 | 1 | – | 0 | 1 | – | – | – | – | 0 | 0 | 0 | 0 | 0 | 0 | – | Growth Rate (Fibroblast; [8]): 0; Growth Rate (U2OS; [8]): 1
16 | COc1cc(C(=O)NS(=O)(=O)c2ccccc2C)ccc1Cc1cn(C)c2ccc(NC(=O)OC3CCCC3)cc12 [ZAFIRLUKAST] | 0 | 0 | 0 | – | 1 | 0 | – | 0 | – | 1 | 1 | 1 | 1 | 0 | – | 1 | 1 | 1 | 1 | 1 | Growth Rate (Fibroblast; [10]): 0; Growth Rate (HEK-293T; [4]): 0; Growth Rate (HEK-293T; [10]): 0; Growth Rate (HEK-293T; [7]): 0
17 | Cc1cnc(-c2cc(Cl)ccc2F)cc1-n1c(=O)n(CC(N)=O)c2ccccc21 [Al11] | 0 | – | 1 | – | 0 | 1 | 0 | 0 | 1 | – | – | 1 | 1 | 0 | 1 | 1 | 1 | 1 | 1 | 0 | Growth Rate (HEK-293T; [2]): 0; Growth Rate (HEK-293T; [4]): 1; Growth Rate (U2OS; [4]): 0
18 | Cl.Clc1ccc(CCCOCCCN2CCCCC2)cc1 [PITOLISANT HYDROCHLORIDE] | 0 | – | – | – | 1 | 1 | – | – | 0 | 0 | 0 | 0 | 0 | 0 | – | 1 | 1 | 1 | – | – | –
19 | COC(=O)/C=C/c1cccc(N(Cc2ccc(-c3ccc(N(C)C)cc3)cc2)C(=O)C2CCCCC2)c1 [FEXARAMINE] | 0 | – | 1 | 0 | 1 | 1 | 0 | 0 | – | 1 | 0 | 0 | 0 | – | – | 1 | 1 | 0 | 0 | 0 | Growth Rate (Fibroblast; [10]): 0; Growth Rate (HEK-293T; [2]): 0; Growth Rate (U2OS; [8]): 0; Growth Rate (U2OS; [4]): 0; Growth Rate (U2OS; [10]): 0
